Reference: patent publication US20230183207A1 (priority 2020, published 2023)

Assays:
[1] = system: SARS-CoV-2 strains JPN/TY/WK-521 and NCGM-nCoV-05-2N; assay: microbe, parasite or virus in culture; assay type: cell-based; settings: for IC50: Severe acute respiratory syndrome coronavirus 2, Vero C1008, read-out: IC50 against SARS-CoV-2
[2] = system: SARS-CoV-2; assay type: cell-based

| SMILES | IC50 [1] [nM] | reasonable effects against SARS-CoV-2 in the assays [1] | also measured |
| --- | --- | --- | --- |
| C=CCn1ccc2c(C(=O)Oc3cncc(Cl)c3)cccc21 [GRL-0820S] | 15000 ± 18000 |  | blocking of infectivity, replication and cytopathic effect of SARS-CoV-2 [2]: significantly blocked the infectivity and replication; viral breakthrough [2]: viral breakthrough occurred |
| O=C(Oc1cncc(Cl)c1)c1cccc2[nH]ccc12 [GRL-0920S] | 2800 ± 300 |  | block of infectivity and cytopathic effect of SARS-CoV-2 (FIG. 1) [2]: virtually completely block the infectivity and cytopathic effect; blocking of infectivity, replication and cytopathic effect of SARS-CoV-2 [2]: completely blocked the infectivity, replication, and cytopathic effect |
| NC(=O)c1nc(F)c[nH]c1=O [favipiravir] |  | none |  |
| CCN(CCO)CCCC(C)Nc1ccnc2cc(Cl)ccc12 (centres unmarked) [hydroxychloroquine] |  | none |  |
| Cc1cccc(C)c1OCC(=O)N[C@@H](Cc1ccccc1)[C@@H](O)C[C@H](Cc1ccccc1)NC(=O)[C@H](C(C)C)N1CCCNC1=O [lopinavir] |  | none |  |
| N=C(N)c1ccc2cc(OC(=O)c3ccc(N=C(N)N)cc3)ccc2c1 [nafamostat] |  | none |  |
| Cc1c(O)cccc1C(=O)N[C@@H](CSc1ccccc1)[C@H](O)CN1C[C@H]2CCCC[C@H]2C[C@H]1C(=O)NC(C)(C)C [nelfinavir] |  | none |  |
| CC(=O)Oc1ccccc1C(=O)Nc1ncc([N+](=O)[O-])s1 [nitazoxanide] |  | none |  |
| CCC(CC)COC(=O)[C@H](C)N[P@](=O)(OC[C@H]1O[C@@](C#N)(c2ccc3c(N)ncnn23)[C@H](O)[C@@H]1O)Oc1ccccc1 [remdesivir] | 2600 ± 700 |  |  |
| NC(=O)c1ncn([C@@H]2O[C@H](CO)[C@@H](O)[C@H]2O)n1 [ribavirin] |  | none |  |
